The values below come from US10849906B2, “Use of Akt2 in diagnosis and treatment of tumor” (priority 2015, dated 2020).

Molecules are shown by their SMILES.

The subject of series [1] is CCRF-CEM tumor-bearing mice. In words: Glucocorticoid sensitization in CCRF-CEM tumor-bearing nude mice. The class given is in vivo. The protocol:
The overall survival time, tumor size and spleen cell apoptosis of the tumor-bearing mice were measured, and the pathological HE staining was carried out to tumors.
The overall survival, tumor size and spleen size of the tumor-bearing mice were measured, the pathological sections of tumor were for HE and Ki-67 staining, and the pathological sections of spleen were for HE, CD3, and TdT staining.

The conditions of series [2]: mouse, in vivo.
The next series deals with SP2/0 cells. The series is described as follows: Apoptosis by Annexin V-FITC PI double staining, SP2/0. The class given is cell-based, mouse. Conditions: compared to dexamethasone alone; FIG. 2M. As for the experimental part:
(§1) Apoptosis was detected by Annexin V-FITC PI double staining method (flow cytometry kit (FITC, PI double staining), Sangon Biotech (Shanghai) Co., Ltd.)), and the collected cells were washed once with phosphate buffered saline (PBS) (135 mM NaCl, 2.7 mM KCl, 1.5 mM KH2PO4 and 8 mM K2HPO4, pH 7.2); the 4× binding buffer was diluted to a 1× binding buffer with deionized water, then the cells were resuspended with 195 ul of the 1× binding buffer at a cell density of 2-5×10^5/ml; 5 μl of Annexin V-FITC was added to the 195 μl of the cell resuspension and mixed, and incubated in dark at room temperature for 10 minutes; the cells were washed once with 200 μl of the 1× binding buffer, and then resuspended in 190 μl of the 1× binding buffer; 10 μl of propidium iodide (20 μg/ml) was added. A flow cytometry device (Beckman company) was used for detection, and the rate of apoptosis was analyzed using Summit software. […]

The next series relates to Molt4 cells. The series is described as follows: Apoptosis by Annexin V-FITC PI double staining, Molt4. The series is classed as cell-based, human. The note with it: compared to the only dexamethasone group; FIG. 2E. As for the experimental part:
as §1

The subject of a further series is Jurkat cells. The series is described as follows: Apoptosis by Annexin V-FITC PI double staining, Jurkat. The series is classed as cell-based, human. Conditions: compared to the only/single dexamethasone group; FIG. 2F, 4J. As for the experimental part:
(§2) Apoptosis was detected by Annexin V-FITC PI double staining method (flow cytometry kit (FITC, PI double staining), Sangon Biotech (Shanghai) Co., Ltd.)), and the collected cells were washed once with phosphate buffered saline (PBS) (135 mM NaCl, 2.7 mM KCl, 1.5 mM KH2PO4 and 8 mM K2HPO4, pH 7.2); the 4× binding buffer was diluted to a 1× binding buffer with deionized water, then the cells were resuspended with 195 ul of the 1× binding buffer at a cell density of 2-5×10^5/ml; 5 μl of Annexin V-FITC was added to the 195 μl of the cell resuspension and mixed, and incubated in dark at room temperature for 10 minutes; the cells were washed once with 200 μl of the 1× binding buffer, and then resuspended in 190 μl of the 1× binding buffer; 10 μl of propidium iodide (20 μg/ml) was added. A flow cytometry device (Beckman company) was used for detection, and the rate of apoptosis was analyzed using Summit software.
(§3) The cells were cultured in RPMI 1640 complete medium (Gibco company) containing 10% fetal bovine serum (FBS, Gibco company) in an incubator (Thermo company) at 5% CO2 and 37° C. until reaching logarithmic growth phase, then different concentrations of inhibitors and/or dexamethasone/ethanol/DMSO were added to the culture medium, followed by further culturing (for addition of dexamethasone/ethanol/DMSO, for 48 hours, and for addition of inhibitor, for 24 hours), and apoptosis was detected by Annexin V-FITC PI double staining and proteins were detected by Western blot, as described in Example 1.
(§4) As described in Example 3, the cells were cultured in RPMI 1640 complete medium containing 10% fetal bovine serum under 5% CO2 and 37° C. until reaching logarithmic growth phase, and then dexamethasone and different concentrations of Akt inhibitor were added to the culture medium, followed by further culture (for addition of dexamethasone/DMSO, for 48 hours, and for addition of the inhibitor, for 24 hours), the apoptosis was detected by Annexin V-FITC PI double staining method and proteins were detected by Western blot as described in Example 1 as well as the cell viability was detected by CCK-8 method.
The transfected cells were selected and passaged for 3 to 5 passages after resuscitation, with Interferin™ as transfection reagent, and the transfection procedure was performed in accordance with the instruction of the transfection reagent. In short, the cells of logarithmic growth phase were plated at 2×10^5/well, the cells were replaced with fresh complete medium (free of antibiotics) during transfection, siRNA was diluted with Opti-MEM and added with an appropriate amount of […]in™ and mixed, incubated at room temperature for 10 minutes prior to being added dropwise to the cells, and the cells were harvested at appropriate time. The cells were transfected with green fluorescein-labeled siRNA (FAM-siRNA) (siRNA at a final concentration of 20 μM, 1.25 μl/well), and the transfection efficiency was observed using a fluorescence microscope 24 hours later. The dexamethasone group was added 24 hours after transfection, followed by culture for further 24 hours, and then the cells were collected for observation; and the equal amount of anhydrous ethanol was added to the control group.

In series [3] the test system is Akt/FoxO3a/Bim signaling pathway in CCRF-CEM cells. The series is described as follows: Western blot of Akt/FoxO3a/Bim signaling pathway proteins in CCRF-CEM cells. The class given is cell-based, human. The note with it: compared to the only dexamethasone group, FIG. 2B, 2H. The protocol:
(§5) The control group was not added with any reagents. All experiments were performed in triplicate.
Protein detection by Western blot: in the examples of the present invention, Akt antibody (rabbit derived), phosphorylated Akt antibody (rabbit derived), FoxO3a antibody (rabbit derived), phosphorylated FoxO3a antibody (rabbit derived) and GAPDH antibody (rabbit derived) and secondary antibodies were all purchased from CST company. The cells were collected in a centrifuge tube and centrifuged at 1000 rpm, the supernatant was discarded and the cells were washed twice with PBS pre-cold at 4° C.; cell lysis buffer (150 mM NaCl, 1% NP-40, 0.1% SDS, 2 μg/ml Aprotinin, 2 μg/ml Leupeptin, 1 mM PMSF, 1.5 mM EDTA, 1 mM sodium vanadate) was added and the cells were lysed on ice for 40 minutes, the cell lysate was centrifuged at 20000 rpm, 4° C. for 15 minutes, and the supernatant was collected; a protein loading buffer for sodium dodecyl sulfate polyacrylamide (SDS-PAGE) gel electrophoresis (1.25 mL 1MTris-HCl (pH6.8), 0.5 g SDS, 25 mg BPB, 2.5 mL glycerol, 5 mL deionized water) was added, followed by boiling for 5 minutes to denature proteins; the loading buffer containing denatured proteins was applied to 10% SDS-PAGE for electrophoresis at 120 V, and then transferred to a PVDF membrane (Sangon Biotech (Shanghai) Co., Ltd.) at 130 V for 1.5 hours; after the membrane transfer was completed, the PVDF membrane was immediately rinsed with a Western washing solution (150 mmol/L NaCl, 50 mmol/L Tris-HCl (pH 7.5)) for 1-2 minutes; added with 5% non-fat milk powder (Shanghai Biotechnology Co., Ltd.), agitated gently and then blocked at room temperature for 60 minutes; a primary antibody diluted appropriately with 5% non-fat milk powder was added, and incubated overnight at room temperature with gentle agitating; the primary antibody was recovered and the membrane was washed three times with the washing solution for 5-10 minutes each; a horseradish peroxidase-labeled secondary antibody diluted appropriately with the Western washing solution was added, and incubated at room temperature for 1 hour with gentle agitating; the secondary antibody was recovered and the membrane was washed three times with the Western washing solution for 5-10 minutes each. An appropriate amount of developing solution (DAB 4 mg, 30% hydrogen peroxide 15 μL, 0.01 M Tris-Cl (pH 7.5) 5 mL) was dropped on the PVDF membrane, the image was detected using a bioluminescence image colorimeter and a gel imaging system (Thermo company), and the quantitative analysis of bands was performed using Image Lab software.
as §3
Methods: CCRF-CEM cells were cultured in RPMI 1640 complete medium (Gibco company) containing 10% fetal bovine serum (FBS, Gibco company) in an incubator (Thermo company) at 5% CO2 and 37° C. until reaching logarithmic growth phase, then DMSO, dexamethasone and different inhibitors (DMSO: 0.1%, dexamethasone: 0.1 μM, inhibitors: 0.8 μM) were added to the culture medium, and further cultured (for addition of dexamethasone or DMSO, for 48 hours, and for addition of inhibitors, for 24 hours), and the proteins were detected by Western blot, as described in Example 1.

In another series the test system is Raji cells. The series is described as follows: Apoptosis by Annexin V-FITC PI double staining, Raji. The series is classed as cell-based, human. Conditions: compared to dexamethasone alone; FIG. 2K, 2N. As for the experimental part:
as §1

The next series has as its system CCRF-CEM cells. The series is described as follows: Apoptosis by Annexin V-FITC PI double staining (flow cytometry), CCRF-CEM. The series is classed as cell-based, human. As for the experimental part:
as §5, §2, §3, §4
For orientation: A flow cytometer gives signals particle by particle.

Regarding `CC[n+]1c(/C=C/N(C)c2ccccc2)n(-c2ccccc2)c2ccc(-c3nc4ccccc4s3)cc21.[I-]` [Akt IV], the “size of subcutaneous tumor” value in series [1] (Akt inhibitor 1.25 μg/mouse plus dexamethasone 0.1 mg/mouse i.p. once daily 7 days, vs single dexamethasone group, FIG. 3A, 3B) is reported as “synergized with dexamethasone to reduce the size of subcutaneous tumor”. Further, the “overall survival of tumor-bearing mice” value in series [1] (Akt inhibitor in combination with dexamethasone vs single dexamethasone group, FIG. 3D) is “significantly increased”. Moreover, the “apoptosis of spleen lymphocytes in the tumor-bearing mice” value in series [1] (Akt inhibitor plus dexamethasone vs single dexamethasone group, FIG. 3E) is listed as “significantly increased”. Also, the liver toxicity result in series [2] is reported as “obvious liver toxicity”. In addition, the “apoptosis of SP2/0 cells, inhibitor in combination with dexamethasone” value in the series on SP2/0 cells is “significantly increased”. Also, the “apoptosis rate of Molt4 cells, inhibitor in combination with dexamethasone” value in the series with Molt4 cells is on record as “significantly increased”. Besides, in the series on Jurkat cells, the “apoptosis of Jurkat cells, inhibitor in combination with dexamethasone” value was “significantly increased”. Besides, in series [3], the “expression of pro-apoptosis factor Bim, inhibitor plus dexamethasone” value is listed as “up-regulated”. The “expression of phosphorylated FoxO3a, inhibitor plus dexamethasone” value in series [3] (2I) is reported as “significantly down-regulated”. The “apoptosis of Raji cells, inhibitor in combination with dexamethasone” value in the series with Raji cells is “significantly increased”. For the same compound, the “sensitization effect to glucocorticoids compared with other cell proliferation pathway inhibitors” value in the series with CCRF-CEM cells (CCRF-CEM, in combination with dexamethasone, FIG. 2L) is recorded as “strongest effect of inducing apoptosis in combination with dexamethasone”. Besides, in the series on CCRF-CEM cells (FIG. 2C), the “apoptosis rate of CCRF-CEM cells, different concentrations of Akt inhibitor in combination with dexamethasone” value is given as “increased along with the increased concentration of the Akt inhibitor”. Besides, the “apoptosis of CCRF-CEM cells induced by dexamethasone, inhibitor plus dexamethasone” value with CCRF-CEM cells (compared to dexamethasone alone, FIG. 2A: Akt inhibitor 1 μM, dexamethasone 1 μM, LY294002 30 μM, FIG. 2G, 2J, 2K) is listed as “significantly increased”.
